Assay results taken from patent publication US20060045881A1, “Anti-cancer vaccines” (Board of Regents, The University of Texas System, priority 2004, published 2006).
Several values for one entry are separate records, joined by “and”; a condition that tells them apart may be missing. Equal entries are not always repeated.

Assays:
HLA-A2.1 = HLA-A2.1 (Homo sapiens, UniProt P04439, D140Y/D185E/D98H/E176V/E277Q/G131W/G231S/I119V/I121R/I166T/I218V/L300P/L318F/N151K/N90K/P208A/P217A/Q86G/Q94H/R138H/R169H/T345S); experiment: HLA-A2.1 surface expression on peptide-coated T2 cells (indirect flow cytometry, BB7.2); type: binding; details: compared with T2 without peptide / control influenza peptide
Protocol: Cell lines and peptide binding. T2 cells (American Type Culture Collection, Rockville, Md., USA) were maintained in culture in CM plus 10% FBS (Atlanta Biologicals Inc., Norcross, Ga., USA). PR1 peptide was incubated at increasing concentrations for 18 hr at 37° C. with 100 μg/ml β2m (Sigma-Aldrich) with 10^6 T2 cells in 1 ml CM. Cells were washed twice with CM, stained with BB7.2 Ab, washed again, and then stained with FITC-labeled secondary Ab (Becton Dickinson Immunocytometry Systems, San Jose, Calif., USA).
T2 cells are a human lymphocyte line that lacks TAP1 and TAP2 genes and therefore cannot present endogenous MHC class I restricted antigens. If the peptide effectively bound HLA-A2.1, it stabilized the complex with (β2-microglobulin and increased HLA-A2.1 surface expression, which could be measured using flow cytometry. An HLA-A2.1 specific monoclonal antibody (BB7.2, ATCC, Rockville, Md.) followed by a FITC-labeled secondary antibody (CalTag Laboratories, Burlingame, Calif.) was used to measure surface expression of HLA-A2.1.
T2 cells are a human lymphocyte line that lacks TAP1 and 2 genes and cannot therefore present endogenous MHC class I restricted antigens. If the peptide effectively bound HLA-A2.1, it stabilized the complex with β2-microglobulin and increased HLA-A2.1 surface expression, which could be measured using flow cytometry. An HLA-A2.1 specific monoclonal antibody (BB7.2, ATCC, Rockville, Md.) followed by a FITC-labeled secondary antibody (CALTAG) was used to measure surface expression of HLA-A2.1. […] The labeled heterotrimer complex was separated from unincorporated β2-microglobulin by high-performance liquid

T2 cells = experiment: 4-hr cytotoxicity of peptide-elicited CTL lines against peptide-loaded T2 cells
Protocol: CTL cytotoxicity assay. A semiautomated minicytotoxicity assay was used to determine specific lysis as described previously (Molldrem, 2000; Molldrem et al., 1996). Briefly, effector cells were prepared in doubling dilutions from 6×10^3 to 25×10^3 cells/well and were plated in 40 μl, 60-well Terasaki trays (Robbins Scientific, Sunnyvale, Calif., USA) with six replicates per dilution. Target cells (T2 cells, marrow-derived leukemic cells, or BM from a healthy donor) at a concentration of 2×10^6 cells/ml were stained with 10 μg/ml of Calcein-AM (Molecular Probes Inc.) for 60 min at 37° C. After washing three times in CM plus 10% AB, target cells were resuspended at 10^5 cells/ml, and 10^3 target cells in 10 μl medium were added to each well containing effector cells. Wells with target cells alone and medium alone were used for maximum (max) and minimum (min.) fluorescence emission, respectively. After 4 hr incubation at 37° C. in 5% CO2, 5 μl FluoroQuench (One Lambda Inc., Canoga Park, Calif., USA) was added to each well, and the trays were centrifuged for 1 min at 60 g before measurement of fluorescence using an automated CytoFluor II plate reader (PerSeptive Biosystems, Framingham, Mass., USA). The percentage of lysis was calculated as follows: % lysis={1−[(mean experimental mission−mean min.)/(mean max−mean min.)]}×100%.
Induction of Primary CTL responses to peptides. These peptides were next used to stimulate T cells specific for peptide-coated targets. PBMC from a normal healthy donor heterozygous for HL-A2.1 were stimulated with peptide-pulsed T2 cells. […] Briefly, T2 cells (which co-express the costimulatory molecule B7.1) were washed 3 times in serum-free RPMI culture media supplemented with penicillin/streptomycin and glutamine (CM) and incubated with peptide at 20 μg/mL for 2 hr in CM. The peptide loaded T2 cells were then irradiated with 7500 cGy, washed once, and suspended with freshly isolated PBMC at a 1:1 ratio in CM supplemented with 10% human serum (HS) (Sigma, St. Louis, Mo.). […]

PR1-CTL = experiment: Annexin V apoptosis of PR1-CTL challenged with peptide-pulsed T2 cells; type: cell-based, human; details: for apoptosis (Annexin V) of high avidity PR1-CTL: T2 pulsed with 20 μM peptide, 16 to 18 hr
Text: High PR1 concentration and proteinase 3-overexpressing CML cells induce apoptosis of high avidity PR1-specific CTL. […] All high avidity PR1-CTL exposed to high dose PR1 were dead after 36 to 48 hr of co-culture.

[1] = test system: human myeloid leukemia cells; experiment: Cytotoxicity of peptide-elicited CTL against HLA-A2.1-positive myeloid leukemia marrow cells; type: cell-based; details: for lysis of HLA-A2.1-positive AML marrow cells by peptide-specific CTL: MY2: E:T 5:1
Text: (§1) PR1 specific CTL preferentially lyse human myeloid leukemia cells. It was next determined whether the PR1-specific CTL line was capable of lysing allogeneic human myeloid leukemia cells from HLA-A2.1 positive individuals. As controls, two cell lines expressing low levels of Pr3 were used: HLA-A2.1 transfected K562 cells and U937 cell line which lack HLA-A2.1 and would therefore be incapable of presenting peptides in an HLA-A2.1-restricted manner. Cryopreserved bone marrow cells from patients P1-P4, and marrow cells from a healthy normal volunteer (D2, a bone marrow donor for an allogeneic bone marrow transplant performed on patient P3) were thawed and used as targets for the PR1-specific CTL line.
(§2) It was next determined whether the MY2 and MY4-specific CTL lines were capable of lysing allogeneic human myeloid leukemia cells from HLA-A2.1 positive individuals. The targets were BM cells from pre-transplant HLA-A2.1-positive AML patients. As controls, BM cells from HLA-A2.1-negative AML patients, BM from HLA-A2.1-positive healthy donors and two cell lines expressing low levels of MPO were used: HLA-A2.1 transfected K562 cells and the U937 cell line which lacks HLA-A2.1 and would therefore be incapable of presenting peptides in an HLA-A2.1-restricted manner.

[2] = test system: marrow cells from a normal healthy donor; experiment: Cytotoxicity of peptide-elicited CTL against normal donor marrow cells; type: cell-based, human
Text: as §1, §2

[3] = test system: HMy2.CIR-A2 cells transfected with Pr3; experiment: PR1-specific CTL lysis of Pr3-transfected HMy2.CIR-A2 cells; type: cell-based, human; details: clone 1.4; E:T 25:1
Protocol: Expression of proteinase 3 following transfection into and HMy2.CIR and HMy2.CIR-A2 cells. […] The parental HMy2.CIR cell line, which has lost expression of HLA-A and -B, and the HLA-A2.1-transfected HMy2.CIR cells (named HMy2.CIR-A2), were both transfected with Pr3 as described below.
Ten million HMy2.CIR (ATCC, Rockville, Md.), or 10 million HMy2.CIR-A2 cells were each washed in phosphate buffered saline (PBS) and re-suspended in 0.8 mL of ice-cold PBS and put into an electroporation cuvette with 20 μg of circular plasmid DNA. The mixture was exposed to an electric pulse of 320 volts at 960 microF and incubated on ice for 10 min. Cells were then added to 10 mL of pre-warmed CM. The following day, the CM was replaced. On day 2, cells were grown under selection conditions using 200 μg/mL Zeocin. Following one week of selection, the cells were subcloned by limiting dilution under Zeocin selection, and 6 clones were isolated.
HMy.2.CIR-A2 cells transfected with Pr3 are susceptible to lysis by PR1 specific CTL. It was next determined whether the transfected HMy2.CIR-A2 cells could be lysed by PR1 specific CTL. The PR1 specific CTL were elicited in the manner previously described, and after 22 days in culture were combined at a 25:1 E:T ratio with HMy2.CIR-A2 transfected either with the Pr3-containing vector pRTZ.2, or the empty vector containing the reporter gene, CAT. […]

[4] = test system: PBMC from HLA-A2.1+ healthy donors; experiment: In vitro elicitation of PR1-CTL from PBMC with peptide-pulsed APC, PR1/HLA-A2 tetramer staining; type: cell-based, human
Protocol: Peptide-specific CTLs were expanded in culture using methods described previously (Molldrem et al., 1996; Molldrem et al., 1997). Briefly, PBMCs from healthy donors or CML patients were stimulated in vitro with PR1, pp65, or flu peptides. T2 cells were washed three times in serum-free CM and incubated with peptide at the indicated peptide concentration for 2 hr in CM.
Ab's and flow cytometry. For routine surface-antigen staining, 10^6 PBMCs were incubated at 4° C. with Ab. After washing, cells were incubated with FITC-labeled CD8 (Caltag Laboratories Inc., Burlingame, Calif., USA) for 30 min on ice. Surface expression of TCR was determined with FITC-labeled TCR-αβ (PharMingen, San Diego, Calif., USA), and annexin V using FITC-labeled Ab (Caltag Laboratories). Proteinase 3 expression was determined with primary mouse Ab (Accurate Chemical & Scientific Corp., Westbury, N.Y., USA). Mouse monoclonal anti-HLA-A2.1 Ab BB7.2 and anti-HLA-ABC w6/32 were derived from culture supernatants of a hybridoma cell lines (American Tissue Culture Collection). Cells were washed and fixed in 2% paraformaldehyde and analyzed on a FACScan (Becton Dickinson Immunocytometry Systems), and data were analyzed using CELLQuest (Becton Dickinson Immunocytometry Systems) software. The minimum concentration of tetramer necessary to show distinctly different avidities was determined in titration experiments. Each tetramer reagent was titered individually and used at the optimal concentration. The tetramer concentration showing the maximal separation of fluorescence intensity of CTL populations was generally 10-20 μg/ml. Propidium iodide (PI) (Becton Dickinson Immunocytometry Systems) staining (1 μg/ml) was performed to exclude dead cells, according to the manufacturer's instructions. A “dump” channel was used with tetramer staining to eliminate monocytes and B lymphocytes with nonspecific binding to the HLA-A2 heavy chain by staining with PerCP-labeled CD14 and CD19 (both Becton Dickinson Immunocytometry Systems).
PR1-specific CTL with high and low TCR avidity can be elicited from healthy donors. To determine whether high and low avidity PR1-CTL are present in healthy donors, a modified tetramer staining technique (Savage et al., 1999) using limiting tetramer concentration to visualize high and low fluorescence intensity tetramer+ cells, which correlates with high and low TCR avidity was utilized. Sufficient PR1-CTL was elicited by stimulating PBMC with increasing peptide concentrations for 28 days. PBMC from an HLA-A2.1+ healthy donor stimulated weekly for 28 days with 0.2 μM PR1 elicited 1.3% high intensity PR1/HLA-A2 tetramer-staining CTL with a median channel of fluorescence (MCF) of 293 (high avidity PR1-CTL), while stimulation with 20 μM PR1 produced 3.1% low avidity (MCF=93) PR1-specific CTL (FIG. 11A). […] Cultures stimulated with 2 μM PR1 produced fewer PR1-specific CTL with mixed TCR avidities, while stimulation with ≦0.02 μM PR1 induced <0.1% PR1-CTL. […] To further verify that tetramer staining intensity correlates with TCR avidity, the kinetics of tetramer staining decay was determined using previously described techniques (Savage et al., 1999).

[5] = test system: HLA-A2+ patients with CML, AML or MDS; experiment: Phase I/II PR1 peptide vaccine study in myeloid leukemia patients; type: in vivo, human
Protocol: PR1 peptide is injected subcutaneously in incomplete Freund's adjuvant every 3 weeks for 3 injections to induce a PR1 specific host response against the myeloid leukemia. Both in Phase I and in Phase II, patients will also be evaluated for signs of immune reactivity. […] The amount of Proteinase 3 expression in the leukemia cells is studied by cytoplasmic flow cytometry analysis. Any clinical responses (defined by standard criteria as hematological and/or cytogenetic responses) will be correlated with the in vitro testing. Vaccination at 3 dose levels of peptide with a fixed amount of IFA will be conducted, and stopping criteria will be guided by established toxicity criteria.
HLA-A2^+ patients with CML (interferon-resistant or relapsed after BMT), AML (smoldering relapse or ≧2nd CR) or MDS (RAEB or RAEBt) with no detectable antibodies to proteinase 3 (no detectable cANCA) were eligible. Patients that relapsed after BMT or those ineligible for BMT were also eligible for study. […]
Secondarily, clinical responses were assessed by standard criteria with bone marrow biopsy, cytogenetic studies (standard chromosome banding) and molecular studies (PCR for bcr-abl or other known abnormalities such as t(15;17), inv16, etc.) 3 weeks after the last vaccination. Patients were seen and evaluated in clinic every 3 weeks during the study period. […]

AML CFU-GM = experiment: CFU-GM colony inhibition by MY4-pulsed CTL, AML marrow; type: cell-based, human; details: patient P1 (M2-AML) and P2 (M4-AML), respectively; 13 day MY4-pulsed CTL
Text: (§3) In contrast there was no inhibition of CFUGM from normal marrow, D1 and D2, the corresponding HLA identical marrow donors for P1 and P2.

[6] = test system: CFU-GM from normal marrow; experiment: CFU-GM colony inhibition by MY4-pulsed CTL, normal marrow; type: cell-based, human; details: D1 and D2, HLA identical marrow donors
Text: as §3

[7] = T2 loaded with 1.0 μg/mL of same peptide, varying E:T

RLFPDFFTRV [PR2]
surface HLA-A2.1 expression on peptide-pulsed T2 cells (in words) (HLA-A2.1): increased surface HLA-A2.1 expression | specific lysis of peptide-loaded T2 cells by CTL line generated against the peptide (T2 cells; [7]): did not demonstrate any significant cytotoxicity

KLNDILLIQL [PR7I]
surface HLA-A2.1 expression on peptide-pulsed T2 cells (in words) (HLA-A2.1): strong peptide binding

KLNDVLLIQL [PR7V]
surface HLA-A2.1 expression on peptide-pulsed T2 cells (in words) (HLA-A2.1): strong peptide binding

Influenza nucleoprotein: control influenza peptide, Influenza B nucleoprotein (aa 85-94), known high binding affinity to HLA-A2.1 (KLGEFYNQMM) [reference compound]
apoptosis (Annexin V) of high avidity PR1-CTL (PR1-CTL): no apoptosis was observed

VLQELNVTV [PR1]
surface HLA-A2.1 expression on peptide-pulsed T2 cells (in words) (HLA-A2.1): increased surface HLA-A2.1 expression | specific lysis of CML blast crisis marrow cells by PR1-specific CTL ([1]; CML-BC, E:T 25:1): 73% | lysis of CML #3 BM cells by patient CTL elicited with 0.2 μM PR1 ([1]; CTL from patients CML #1 and CML #2, respectively, E:T 20:1): 24%±5% and 33%±6% | specific lysis of CML marrow cells by PR1-specific CTL ([1]; P1, CML in chronic phase, E:T 6:1): 53% | lysis of normal donor marrow cells by PR1-specific CTL ([2]; donor D2): < 20% | specific lysis of Pr3-transfected cells by PR1-specific CTL [3]: 36% | % of bulk culture CTL double-positive (CD8, PR1-tetramer) ([4]; 32 day-old PR1-stimulated CTL culture): 4.3% | % PR1/HLA-A2 tetramer-staining CTL ([4]; PBMC stimulated weekly 28 days with 0.2 μM PR1 (high avidity)): 1.3% | % of CTL line specific for PR1 (PR1-tetramer/CD8) ([4]; day 17 CTL line elicited against PR1): 2.4% | % PR1/HLA-A2 tetramer-staining CTL ([4]; stimulated with 20 μM PR1 (low avidity)): 3.1% | % PR1-CTL induced ([4]; stimulation with ≦0.02 μM PR1): < 0.1% | apoptosis (Annexin V) of high avidity PR1-CTL (PR1-CTL): underwent apoptosis | apoptosis (Annexin V) of low avidity PR1-CTL (PR1-CTL; high or low concentrations of PR1): did not undergo apoptosis | patients with complete remission ([5]; 9 patients (1 AML and 1 CML)): 2 patients | patients in whom PR1-specific CTL immunity was elicited (tetramer staining) ([5]; 9 patients, 0.25, 0.5 or 1.0 mg every 3 weeks x3): 6 of 9 | specific lysis of peptide-loaded T2 cells by CTL line generated against the peptide (T2 cells; [7]): high specific lysis

KLLLALAGL [MY2]
lysis of HLA-A2.1-positive AML marrow cells by peptide-specific CTL [1]: readily lysed | lysis of HLA-A2.1-positive normal healthy donor marrow cells by MY2-specific CTL ([2]; E:T 20:1): 43% | specific lysis of peptide-loaded T2 cells by CTL line generated against the peptide (T2 cells; T2 loaded with 2.0 μg/mL of same peptide): high specific lysis

RLFEQVMRI [MY4]
lysis of HLA-A2.1-positive AML marrow cells by peptide-specific CTL [1]: killed AML cells | specific lysis of HLA-A2+ normal BMC by peptide-specific CTL [2]: not normal cells | inhibition of CFU-GM (AML CFU-GM): 63% and 34% | inhibition of CFU-GM from normal marrow [6]: no inhibition
